Assay results reported in patent publication US8648074B2, “Substituted octahydropyrrolo[1,2-a]pyrazine sulfonamides as calcium channel blockers” (AbbVie Inc., priority 2011, dated 2014).

test system: Chronic constriction injury (CCl), a model of neuropathic pain; test: In vivo assessment of analgesic effect against neuropathic pain (Bennett model, chronic constriction injury; tactile allodynia by von Frey filaments); details: Rattus norvegicus, po, 1 h; male Sprague Dawley rats, CCI; 10 mg/kg orally; mechanical allodynia 60 minutes following administration; percentage of maximum possible effect from log g PWT; read-out: % MPE
Experimental: Animals were prepared for testing, by use of a surgical procedure that induces neuropathic pain in one paw. IACUC guidelines for rodent survival surgery were followed. All surgical procedures were conducted on a clean, uncluttered surgical station. The area was wiped with a 70% ethanol solution before and after use. All instruments were sterilized by either autoclave or chemical sterilant (such as 2% glutaraldehyde>10 hours). Surgeons wore sterile gloves (for the initial procedure), clean lab coat or scrubs, hairnet or cap, and a half-mask respirator (when not working under a hood). Surgeons thoroughly washed their hands prior to donning sterile gloves. Gloves were disinfected in-between animals by cleansing with povidone iodine, chlorhexidine or 70% alcohol for at least 30 seconds. If multiple surgeries were performed, the instruments were cleaned and sterilized between procedures with hot glass beads (>10 seconds). To prevent thermal or chemical burns, the instruments were cooled by rinsing in sterile saline before use. Male, Sprague Dawley® rats, 175-200 g were used for surgeries. To minimize post-operative dehydration/maintain blood volume during the surgery, warmed sterile saline or Lactate Ringers solution at 10-15 mL/kg was administered subcutaneously immediately before or after surgery. This facilitated better renal function and presumably anesthesia product excretion post surgery. For all surgical procedures, anesthesia was induced with 4-5% isoflurane. Anesthesia was maintained during surgery with 1-3% isoflurane. Following induction, the surgical site was carefully shaved and the exposed area was aseptically prepared with povidone-iodine scrub solution and 70% ethanol 2-3 times. Chronic constriction injury (CCl), a model of neuropathic pain, was produced by following the method of Bennett and Xie (Bennett, G, et al. Pain, 1988, 33, 87-107). After site sterilization and anesthetic procedures outline above were completed, a 1.5 cm incision was made at the mid-thigh level to expose the biceps femoris and gluteous superficialis (right side), which were then separated by blunt dissection. The common sciatic nerve was exposed, isolated, and loosely ligated by four 5-0 chromic gut ligatures with <1 mm spacing between each. The surgical site was closed in layers—muscle was closed with 6.0 absorbable sutures, and the skin closed with wound clips. Animals were allowed to recover on a warming plate and were returned to their home cages when fully ambulatory. Animals were not be used for testing until at least 10 days following surgery. To measure mechanical sensitivity, tactile allodynia was measured using calibrated von Frey filaments (Stoelting, Wood Dale, Ill.) as described by Chaplan et al. (Chaplan S., et al. J of Neuroscience Methods 1994, 53, 55-63). Filament strengths used were: 0.4, 0.6, 1.0, 2, 4, 6, 8, and 15 g. Rats were placed into inverted individual plastic containers (20×12.5×20 cm) on top of a suspended wire mesh grid, and acclimated to the test chambers for at least 20 minutes. Filaments were applied perpendicular to the mid-plantar paw surface with enough force to cause slight buckling and held in place for 6-8 seconds. Positive responses included an abrupt withdrawal of the paw from the stimulus or flinching behavior immediately following removal of the stimulus. The maximum force applied was 15 g. The 50% paw withdrawal threshold (PWT) was calculated in grams (g) using the up-down method of Dixon (Dixon W. Ann Rev Pharmacol Toxicol 1980, 20, 441-462). […] All compounds were orally administered in at a dose of 10 mg/kg in 10% dimethyl sulfoxide/polyethylene glycol at a volume of 2.0 mL/kg, and mechanical allodynia was determined 60 minutes following compound administration. […]

| Structure (SMILES) | inhibition in vivo at 10 mg/kg [%] |
| --- | --- |
| O=S(=O)(c1cccc(C(F)(F)F)c1)N1CCN2C[C@H](Oc3cnc(C4CC4)cn3)C[C@H]2C1 [Example 21, (7R,8aS)-7-[(5-cyclopropylpyrazin-2-yl)oxy]-2-{[3-(trifluoromethyl)phenyl]-sulfonyl}octahydropyrrolo[1,2-a]pyrazine] | 43 |
| O=S(=O)(c1ccc(C(F)(F)F)cc1)N1CCN2C[C@H](Oc3cnc(C4CC4)cn3)C[C@H]2C1 [Example 25, (7R,8aS)-7-[(5-cyclopropylpyrazin-2-yl)oxy]-2-{[4-(trifluoromethyl)-phenyl]sulfonyl}octahydropyrrolo[1,2-a]pyrazine] | 42 |
| O=S(=O)(c1cccc(C(F)(F)F)c1)N1CCN2C[C@H](Oc3ccc(C4CC4)nn3)C[C@H]2C1 [Example 44, (7R,8aS)-7-[(6-cyclopropylpyridazin-3-yl)oxy]-2-{[3-(trifluoromethyl)-phenyl]sulfonyl}octahydropyrrolo[1,2-a]pyrazine] | 40 |
| O=S(=O)(c1cccc(C(F)(F)F)c1)N1CCN2C[C@@H](Oc3cnc(C4CC4)cn3)C[C@H]2C1 [Example 49, (7S,8aS)-7-[(5-cyclopropylpyrazin-2-yl)oxy]-2-{[3-(trifluoromethyl)-phenyl]sulfonyl}octahydropyrrolo[1,2-a]pyrazine] | 19 |
| O=S(=O)(c1ccc(C(F)(F)F)cc1)N1CCN2C[C@@H](Oc3cnc(C4CC4)cn3)C[C@H]2C1 [Example 50, (7S,8aS)-7-[(5-cyclopropylpyrazin-2-yl)oxy]-2-{[4-(trifluoromethyl)phenyl]-sulfonyl}octahydropyrrolo[1,2-a]pyrazine] | 25 |
| O=S(=O)(c1cc(F)cc(C(F)(F)F)c1)N1CCN2C[C@H](Oc3cnc(C4CC4)cn3)C[C@H]2C1 [Example 51, (7R,8aS)-7-[(5-cyclopropylpyrazin-2-yl)oxy]-2-{[3-fluoro-5-(trifluoromethyl)phenyl]sulfonyl}octahydropyrrolo[1,2-a]pyrazine] | 32 |
| O=S(=O)(c1ccc(F)c(C(F)(F)F)c1)N1CCN2C[C@H](Oc3cnc(C4CC4)cn3)C[C@H]2C1 [Example 52, (7R,8aS)-7-[(5-cyclopropylpyrazin-2-yl)oxy]-2-{[4-fluoro-3-(trifluoromethyl)phenyl]sulfonyl}octahydropyrrolo[1,2-a]pyrazine] | 38 |
| O=S(=O)(c1ccc(C(F)(F)F)cc1)N1CCN2C[C@@H](Oc3cnc(C4CC4)cn3)C[C@@H]2C1 [Example 54, (7S,8aR)-7-[(5-cyclopropylpyrazin-2-yl)oxy]-2-{[4-(trifluoromethyl)phenyl]-sulfonyl}octahydropyrrolo[1,2-a]pyrazine] | 34 |
| O=S(=O)(c1ccc(F)cc1F)N1CCN2C[C@H](Oc3cnc(C4CC4)cn3)C[C@H]2C1 [Example 62, (7R,8aS)-7-[(5-cyclopropylpyrazin-2-yl)oxy]-2-[(2,4-difluorophenyl)-sulfonyl]octahydropyrrolo[1,2-a]pyrazine] | 29 |
| N#Cc1cc(C(F)(F)F)cc(S(=O)(=O)N2CCN3C[C@H](Oc4cnc(C5CC5)cn4)C[C@H]3C2)c1 [Example 64, 3-{[(7R,8aS)-7-[(5-cyclopropylpyrazin-2-yl)oxy]hexahydropyrrolo[1,2-a]-pyrazin-2(1H)-yl]sulfonyl}-5-(trifluoromethyl)benzonitrile] | 37 |
| O=S(=O)(c1ccc(C(F)(F)F)cn1)N1CCN2C[C@H](Oc3cnc(C4CC4)cn3)C[C@H]2C1 [Example 67, (7R,8aS)-7-[(5-cyclopropylpyrazin-2-yl)oxy]-2-{[5-(trifluoromethyl)pyridin-2-yl]sulfonyl}octahydropyrrolo[1,2-a]pyrazine] | 5 |
| N#Cc1ccc(O[C@@H]2C[C@H]3CN(S(=O)(=O)c4cccc(C(F)(F)F)c4)CCN3C2)cn1 [Example 86, 5-{[(7R,8aS)-2-{[3-(trifluoromethyl)phenyl]sulfonyl}octahydropyrrolo[1,2-a]pyrazin-7-yl]oxy}pyridine-2-carbonitrile] | 0 |
